Test results: PubChem BioAssay (NCI)
“And” between values parts separate entries of the source, which are not always exact repeats. Identical values can stand only once.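 Cells were grown in 96-well plates and exposed to each compound for 48 hours at five concentrations; endpoints were interpolated linearly between bracketing concentrations, or set to the highest concentration if not reached. At the GI50, growth is halved. TGI: total growth inhibition.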

Legend:
Assay in all cases: DTP human tumour cell line panel, 48 h
[1] = test system: A498 renal
[2] = test system: EKVX NSCLC
[3] = test system: HS 578T breast
[4] = test system: HT29 colon
[5] = test system: OVCAR-4 ovarian
[6] = test system: SF-268 CNS
[7] = test system: LOX IMVI melanoma
[8] = test system: MALME-3M melanoma
[9] = test system: NCI-H23 lung
[10] = test system: SR leukemia

Compound | GI50 [1] | TGI [1] | GI50 [2] | TGI [2] | GI50 [3] [µM] | TGI [3] | GI50 [4] | TGI [4] | GI50 [5] | TGI [5] | GI50 [6] | TGI [6] | TGI [7] | TGI [8] | TGI [9] | TGI [10] | GI50 [9] | GI50 [10] [µM] | GI50 [7] | GI50 [8]
Cc1ccc(Cl)cc1NC(=O)c1sc2nc3c(cc2c1N)C(=O)CCC3 | 1.86 µM | > 100 µM | 7.26 µM | > 100 µM | 2.34 | > 100 µM | 3.54 µM | > 100 µM | > 100 µM | > 100 µM | > 100 µM | > 100 µM |  |  |  |  |  |  |  | 
N#CC1CCCCCCCCCCC(=O)N(CCCl)C1=O (stereo unspecified) |  | > 100 µM |  | > 100 µM |  |  |  | > 100 µM |  | > 100 µM |  | > 100 µM | > 100 µM | > 100 µM | > 100 µM |  |  |  |  | 
COc1ccccc1NC(=O)CC(=O)N/N=C/c1ccc(N(CCC#N)S(=O)(=O)c2ccccc2)cc1 |  |  |  | > 100 µM |  |  |  | > 100 µM |  | > 100 µM |  | > 100 µM | > 100 µM | > 100 µM | > 100 µM | > 100 µM |  |  |  | 
N#Cc1cccc(/C=N/N=C(\N)NO)c1 |  | > 100 µM |  | > 100 µM |  |  |  | > 100 µM |  | > 100 µM |  | > 100 µM | > 100 µM | > 100 µM | > 100 µM | > 100 µM |  |  |  | 
O=Cc1c(O)c(C(=O)Nc2ccc3[nH]c(=O)[nH]c3c2)cc2ccccc12 |  | > 100 µM |  | > 100 µM |  |  |  | > 100 µM |  | > 100 µM |  | > 100 µM | > 100 µM | > 100 µM | > 100 µM |  |  |  |  | 
CC(=O)OCC1OC(n2c(-c3ccc(C)cc3)cc(-c3ccccc3)c(C#N)c2=O)C(OC(C)=O)C(OC(C)=O)C1OC(C)=O (stereo unspecified) |  |  |  | > 100 µM |  |  |  | > 100 µM |  | > 100 µM |  | > 100 µM | > 100 µM | > 100 µM | > 100 µM |  |  |  |  | 
CN(C)CCCNC(=O)c1cc(NC(=O)c2cc(NC(=O)CCNS(=O)(=O)c3ccc4c(c3)C(=O)c3ccccc3C4=O)cn2C)cn1C | > 100 µM | > 100 µM | > 100 µM | > 100 µM | > 100 | > 100 µM | > 100 µM | > 100 µM |  |  | > 100 µM | > 100 µM |  |  | > 100 µM | > 100 µM | > 100 µM | 85.9 |  | 
COc1cc(C2CC(c3ccc(Nc4ccnc5cc(Cl)ccc45)cc3)=NN2c2ccc(Cl)cc2)cc(OC)c1OC (stereo unspecified) | 1.66 µM | 50.6 µM |  |  | 2.18 | > 100 µM | 2.66 µM | > 100 µM |  |  | 5.49 µM | > 100 µM | 11.3 µM | > 100 µM | > 100 µM | 56.3 µM | 8.82 µM | 1.2 | 1.66 µM | > 100 µM
N#CC1CC2(CCN1C(=O)c1ccccc1)OCCO2 (stereo unspecified) |  | > 100 µM |  | > 100 µM |  |  |  | > 100 µM |  | > 100 µM |  | > 100 µM |  | > 100 µM | > 100 µM | > 100 µM |  |  |  | 
COC(C)(C)C/C=C/C(C)=C/C=C/C(C)=C\C=C\C(C)=C\C=C\C=C(C)\C=C\C=C(C)\C=C\C=C(C)\C=C\CC(C)(C)OC | > 150 µg/mL | > 150 µg/mL | > 150 µg/mL | > 150 µg/mL |  |  | > 150 µg/mL | > 150 µg/mL | > 150 µg/mL | > 150 µg/mL | > 150 µg/mL | > 150 µg/mL | > 150 µg/mL | > 150 µg/mL | > 150 µg/mL |  | > 150 µg/mL |  | > 150 µg/mL | > 150 µg/mL
CC(C)OP(=O)(NC(=S)c1ccccc1)OC(C)C |  | > 100 µM |  | > 100 µM |  |  |  | > 100 µM |  | > 100 µM |  | > 100 µM | > 100 µM | > 100 µM | > 100 µM |  |  |  |  | 
NC(N)=NS(=O)(=O)c1ccc(NCCc2c3ccccc3nc3ccccc23)cc1 |  |  |  | > 100 µM |  |  |  | > 100 µM |  | 53.8 µM |  | > 100 µM | > 100 µM | > 100 µM |  | > 100 µM |  |  |  | 
CCOC(=O)c1c2c(n3ccccc13)C(=O)c1ncccc1C2=O |  |  | 1.13 µM | 19.3 µM |  |  | 1.63 µM | 5.68 µM | 0.687 µM | 12.3 µM | 0.0474 µM | 23.3 µM | 1.78 µM | 4.56 µM | 5.75 µM | > 100 µM | 0.0617 µM | 0.0159 | 0.0413 µM | 0.0561 µM
Cc1cc2c(C)nn(Cc3ccc(Cl)cc3)c2c(C#N)c1C |  |  |  | > 100 µM |  |  |  |  |  |  |  | > 100 µM |  | > 100 µM | > 100 µM | > 100 µM |  |  |  | 
COc1cccc(/C=N/C(/N=C/c2cccc(OC)c2O)c2cccc(OC)c2O)c1O |  |  |  | 52 µM |  | 61.5 µM |  | > 100 µM |  |  |  | 42.5 µM | 58 µM |  | > 100 µM | 35.1 µM |  |  |  | 
S=P(N1CC1)(N1CC1)N1CC1 | 24.5 µM | 39.8 µM and 280 µM |  |  | 534 | 913 µM and 962 µM |  | 66.7 µM and 500 µM and 617 µM |  |  | 8.67 µM and 24.8 µM | 60.6 µM and 536 µM and 476 µM | 42 µM and 307 µM and 294 µM |  |  | > 51.4 µM and 441 µM |  |  | 7.14 µM and 54.5 µM | 
Cc1cc(Cl)ccc1NC(=O)CC1SC(=Nc2ccccc2Cl)NC1=O (stereo unspecified) |  | > 100 µM |  | > 100 µM |  |  |  | > 100 µM |  | > 100 µM |  | > 100 µM |  | > 100 µM | > 100 µM | 70.2 µM |  |  |  | 
COC(=O)/C=C/c1cc2c(cc1-c1c(C(=O)O)cc(OC)c(OC)c1OC)OCO2 |  |  |  |  |  | > 10 µM |  | > 10 µM |  | > 10 µM |  | > 10 µM | > 10 µM | > 10 µM | > 10 µM | > 10 µM |  |  |  | 
O=C1C(=Cc2c(O)cc(O)cc2O)C(=O)c2ccccc21 |  | 98.7 µM |  | > 100 µM |  |  |  | > 56.4 µM |  | > 72.7 µM |  | > 63.1 µM | 29.2 µM | > 59.3 µM | > 53.9 µM | 50.7 µM |  |  |  | 
CC12CCC(Br)C(C)(C)C1CC=C1C(=O)OCC1O2 (stereo unspecified) |  | 24.7 µM |  | 47 µM |  | 55 µM |  | 87.5 µM |  | 42.3 µM |  | 31.9 µM | 30.4 µM |  | 32 µM | 31.2 µM |  |  |  | 
CC(C)(c1ccccc1)c1ccc(OC#N)cc1 |  | > 100 µM |  | > 100 µM |  |  |  | > 100 µM |  | > 100 µM |  | > 100 µM | > 58.9 µM | > 100 µM | > 100 µM | 43.1 µM |  |  |  | 
Cn1cc2ccccc2c1-c1nc(F)nc(OCC(=O)[C@H]2CCC3[C@@H]4CCC5=CC(=O)CC[C@]5(C)C4[C@@H](O)C[C@@]32C)n1 (stereo partly specified) |  | > 54 µM |  | 58.8 µM |  |  |  | 42.7 µM |  | 29.6 µM |  | 33.3 µM | 23.3 µM | 33.8 µM | 16.5 µM | 12.8 µM |  |  |  | 
